Results on 1 molecule are retold here after PMC8422859, “A Novel Oral Arginase 1/2 Inhibitor Enhances the Antitumor Effect of PD-1 Inhibition in Murine Experimental Gliomas by Altering the Immunosuppressive Environment” (Frontiers in Oncology, 2021).

One may read the IC50 as the concentration at which inhibition is half-maximal.

Series [1] has as its system plasma cytokines. The series can be described thus: Plasma cytokine analysis (Milliplex/MAGPIX). The format is in vivo, mouse. Particulars: blood collected 2 h after last administration of OAT-1746. Here is the method:
Measurement of pro- and anti-inflammatory cytokines was performed in blood from control and treated animals. Blood was quickly collected to EDTA containing tubes before perfusion and centrifuged (10,000 × g) for 10 min at room temperature. The plasma was collected and stored at -80°C. The levels of cytokines were measured using the Milliplex Kit (Merk-Millipore, Germany) according to the protocol. Cytokine levels were determined using the MAGPIX Multiplexing Instrument (Luminex, TX, USA) with XPonent software and analyzed with Milliplex Analyst 5.1 software. Results were expressed as pg/mL for each cytokine.

In series [2] the test system is GL261 tdTomato+luc+ glioma. The series can be described thus: GL261 intracranial glioma growth (tumor volume, bioluminescence). The class given is in vivo, mouse. The procedure:
Mice were deeply anesthetized with isoflurane. After identifying the sagittal and coronal sutures on the right side, a hole was drilled at the following coordinates: 1 mm anterior and 1,5 mm lateral from bregma. GL261 tdTomato^+luc^+ glioma cells (80,000 in 1 μL of DMEM) were stereotactically injected with a Hamilton syringe to the right striatum of the mouse 3 mm deep from the surface of the brain. The skin incision was closed and mice were monitored until they completely recovered from anesthesia. Mice were randomly allocated to the study groups. The animals were weighed weekly and observed daily for clinical symptoms and evidence of toxicity by evaluating their eating, mobility, weight loss, hair loss, and hunched posture. OAT-1746 was administered by oral gavage at 50 mg/kg twice a day from day 1 after implantation. Anti-PD-1 antibody (Biolegend, GoInVivo™ Purified anti-mouse CD279) was injected intraperitoneally (i.p.) at a dose of 2.5 mg/kg on days 8, 10, 12, 14 post-implantation. Control groups received vehicle (saline) twice a day by gavage. Animals were euthanized when they lost more than 20% of body weight compared to day 0.
To monitor tumor growth, mice were injected i.p. with 150 mg/kg body weight luciferin (D-luciferin sodium salt BC218 Synchem) and left for 8 min. Then, the animals were anesthetized with 3% isoflurane and transferred to the X-treme Imaging System (Bruker, Germany). At 10 min after the D-luciferin injection, a photonic emission was imaged. Tumors were visualized at days 14, 21 and 28 after implantation and bioluminescent images were quantified as photon/sec/mm^2. […]
The animals were sacrificed on the day 21 after GL261 tdTomato^+luc^+ cell implantation and perfused with 4% paraformaldehyde in PBS. […] To quantify the tumor size, sections were stained with toluidine blue, and images were acquired using a Leica DM4000B microscope (Leica Microsystems, Wetzlar, Germany). Tumor areas were measured using ImageJ software (NIH, Bethesda, MD, USA) on every sixth brain slice, and tumor volumes were calculated as previously described ([26]).

Series [3] addresses T1, recombinant human ARG1 (Homo sapiens, UniProt P05089).
T1 construct: made in house; host or cells: E. coli
T1 sequence (P05089 1-322): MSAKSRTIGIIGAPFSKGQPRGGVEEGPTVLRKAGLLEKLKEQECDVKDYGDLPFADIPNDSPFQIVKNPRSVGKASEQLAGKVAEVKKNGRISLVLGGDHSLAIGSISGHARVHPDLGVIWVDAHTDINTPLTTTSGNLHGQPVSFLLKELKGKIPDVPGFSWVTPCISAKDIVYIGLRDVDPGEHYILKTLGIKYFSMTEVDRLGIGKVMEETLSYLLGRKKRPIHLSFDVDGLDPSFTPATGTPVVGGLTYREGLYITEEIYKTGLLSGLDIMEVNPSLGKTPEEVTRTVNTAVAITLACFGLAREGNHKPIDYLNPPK
The series can be described thus: Recombinant arginase activity assay, hARG1. The format is biochemical. The note with it: 1 h at 37°C, pH 7.4, 10 mM L-arginine, urea detection; read-out: Inhibition of recombinant hARG1: IC50. Here is the method: The inhibitory activity towards hARG1 and hARG2 enzymes was assessed using recombinant enzymes biosynthesized using a prokaryotic expression system (E. coli) and purified by fast protein liquid chromatography (FPLC). Briefly, recombinant enzymes were incubated with the tested compounds for 1 h at 37°C in the reaction buffer (100 mM sodium phosphate buffer, 130 mM NaCl, 1 mg/mL BSA, pH 7.4) containing substrate (10 mM L-arginine hydrochloride) and cofactor (200 µM MnCl2). The assay is based on the detection of urea, which is generated during the conversion of L-arginine into L-ornithine catalyzed by arginases. To visualize the product, we adding a mixture of reagent A (4 mM oPA, 50 mM boric acid, 1 M sulfuric acid, 0.03% Brij-35) and reagent B (4 mM NED, 50 mM boric acid, 1 M sulfuric acid, 0.03% Brij-35) in equal proportions. The absorbance was measured at 515 nm. The urea production in the absence of any tested compound was considered as maximal enzyme activity. The absorbance in the absence of arginase (background) was considered as zero activity. Two reference compounds OAT-81 (ABH, no. 222638-65-5) and OAT-90 (2-amino-6-borono-2-(2-(3-(2,4-dichlorophenyl)propyloamino)ethyl) hexanoic acid, and two novel inhibitors OAT-1617 and OAT-1746 (the last three synthesized at OncoArendi Therapeutics) were tested. Normalized values were analyzed using GraphPad Prism 7.0 software and the IC50 values were determined.

Series [4] deals with BV2 microglial cells. The series can be described thus: MTT viability assay, BV2. Particulars: 24 h, concentrations up to 1000 µM. The class given is cell-based, mouse. Here is the method:
Cell viability was assessed using MTT metabolism assay (U87 and BV2 cells) or MTS CellTiter 96® AQueous One Solution Cell Proliferation Assay (Promega) for the primary murine microglia cultures. Cells were cultured either in 96-well plates (U87 at density of 1×10^4) or 24-well plates (BV2 at density of 4×10^4 and primary microglia 8×10^4) with the indicated concentrations of the inhibitor or H2O (vehicle) for 24 h. MTT solution (Sigma Aldrich) was added to each well to a final concentration of 0.5 mg/mL. After 1 h of incubation at 37°C, water-insoluble dark blue formazan crystals were dissolved in DMSO. Optical densities (OD) were measured at 570 and 620 nm using a scanning multiwell spectrophotometer. The MTT assay was performed according to the manufacturer’s protocol. All measurements were carried out on three independent cell passages, in triplicates.

On to `CN(C)C[C@@H]1CC[C@@H](CCB(O)O)C[C@]1(N)C(=O)O` [OAT-1746], for which, in series [1], the “plasma levels of CCL2” value is recorded as “higher levels” and the “plasma levels of CCL5” value is recorded as “reduced”. The “animals that developed tumors at day 14” value in series [2] (bioluminescence, day 14) is 5 out of 8. The “tumor growth (tumor volume on brain sections)” value in series [2] (day 21, OAT-1746 50 mg/kg oral twice a day, anti-PD-1 2.5 mg/kg i.p. days 8, 10, 12, 14) is “did not reduce the tumor growth”. For the same molecule, the “glioma growth (bioluminescence imaging)” value in series [2] (days 14, 21, 28 post-implantation) is on record as “did not show any effect on the tumor volume”. Besides, the IC50 in series [3] was found to be 28 nM. Further, the “viability of BV2 microglial cells (toxicity)” value in series [4] was “not toxic”.
